Measured values taken from US10011629B2, “Nucleoside analogs for treatment of the flaviviridae family of viruses and cancer” (Cocrystal Pharma, Inc., priority 2015, dated 2018).
“Also recorded” adds a separate entry of the source. Like-named read-outs stand apart in the source and are kept apart here.

Experiments:
[1] = Cytotoxicity in HCV replicon assay (ΔCt rRNA); format: cell-based; conditions: human; replicon cells; CC50; read-out: CC50 or % inhibit cytotoxicity
Method: (§1) Huh 7 Clone B cells containing HCV Replicon RNA were seeded in a 96-well plate at 5000 cells/well, and the compounds tested at 10 μM in triplicate immediately after seeding. Following five days incubation (37° C., 5% CO2), total cellular RNA was isolated by using versaGene RNA purification kit from Gentra. Replicon RNA and an internal control (TaqMan rRNA control reagents, Applied Biosystems) were amplified in a single step multiplex Real Time RT-PCR Assay. The antiviral effectiveness of the compounds was calculated by subtracting the threshold RT-PCR cycle of the test compound from the threshold RT-PCR cycle of the no-drug control (ΔCt HCV). A ΔCt of 3.3 equals a 1-log reduction (equal to 90% less starting material) in Replicon RNA levels. The cytotoxicity of the compounds was also calculated by using the ΔCt rRNA values. 2′-C-Me-C was used as the positive control. To determine EC90 and IC50 values^2, ΔCt: values were first converted into fraction of starting material^3 and then were used to calculate the % inhibition.

[2] = system: HCV 1b (Huh 7 Clone B cells containing HCV Replicon RNA); experiment: HCV replicon assay; format: cell-based; conditions: Hepatitis C virus
Method: as §1, with “inhibition. […]” for “inhibition.”

[3] = Assay for bone marrow cytotoxicity; format: cell-based, human; conditions: human; organization LOBP; read-out: Bone marrow toxicity, CC50
Method: (§2) Primary human bone marrow mononuclear cells can be obtained commercially from Cambrex Bioscience (Walkersville, Md.). CFU-GM assays is carried out using a bilayer soft agar in the presence of 50 units/mL human recombinant granulocyte/macrophage colony-stimulating factor, while BFU-E assays used a […] matrix containing 1 unit/mL erythropoietin (see Sommadossi J P, Carlisle R. Toxicity of 3′-azido-3′-deoxythymidine and 9-(1,3-dihydroxy-2-propoxymethyl) guanine for normal human hepatopoietic progenitor cells in vitro. Antimicrob. Agents Chemother. 1987; 31: 452-454; Sommadossi, J P, Schinazi, R F, Chu, C K, and Xie, M Y. Comparison of cytotoxicity of the (−) and (+) enantiomer of 2′,3′-dideoxy-3′-thiacytidine in normal human bone marrow progenitor cells. Biochem. Pharmacol. 1992; 44:1921-1925). Each experiment can be performed in duplicate in cells from three different donors. AZT is used as a positive control. […] Statistical analysis can be performed with Student's t test for independent non-paired samples.

[4] = system: Primary human bone marrow mononuclear cells; experiment: Assay for bone marrow cytotoxicity; format: cell-based; conditions: organization Stem cell; read-out: Bone marrow toxicity, CC50
Method: as §2

[5] = system: nuclear DNA (ß-actin or rRNA gene) in HepG2 cells; experiment: Nuclear DNA level in HepG2 cells (real-time PCR); format: cell-based, human; conditions: Homo sapiens, HepG2, 336 h
Method: (§3) This assay was used in all studies described in this application that determine the effect of compounds on mitochondrial DNA content. In this assay, low-passage-number HepG2 cells were seeded at 5,000 cells/well in collagen-coated 96-well plates. Test compounds were added to the medium to obtain final concentrations of 0 μM, 0.1 μM, 10 μM and 100 μM. […] The mitochondrial cytochrome c oxidase subunit II (COXII) gene and the ß-actin or rRNA gene were amplified from 5 μl of the eluted nucleic acids using a multiplex Q-PCR protocol with suitable primers and probes for both target and reference amplifications. […] For exon 3 of the ß-actin gene (GenBank accession number E01094) the sense, probe, and antisense primers are 5′-[…]-3′ (SEQ ID NO. 4), 5′-6-[…]-3′ (SEQ ID NO. 5) and 5′-[…]-3′ (SEQ ID NO. 6), respectively. The primers and probes for the rRNA gene are commercially available from Applied Biosystems. […] The comparative CT method uses arithmetic formulas in which the amount of target (COXII gene) is normalized to the amount of an endogenous reference (the B-actin or rRNA gene) and is relative to a calibrator (a control with no drug at day 7). The arithmetic formula for this approach is given by 2-ΔΔCT, where ΔΔCT is (CT for average target test sample−CT for target control)−(CT for average reference test−CT for reference control) (see Johnson M R, K Wang, J B Smith, M J Heslin, R B Diasio. Quantitation of dihydropyrimidine dehydrogenase expression by real-time reverse transcription polymerase chain reaction. Anal. Biochem. 2000; 278:175-184). A decrease in mitochondrial DNA content in cells grown in the presence of drug indicated mitochondrial toxicity.

HepG2 cells = experiment: Lactic acid production in HepG2 cells; format: cell-based, human; conditions: 14-day assay
Method: To measure the effects of the compounds on lactic acid production, HepG2 cells from a stock culture were diluted and plated in 12-well culture plates at 2.5×10^4 cells per well. […] […] The culture medium was then filtered, and the lactic acid content in the medium was determined using a colorimetric lactic acid assay (Sigma-Aldrich). Since lactic acid product can be considered a marker for impaired mitochondrial function, elevated levels of lactic acid production detected in cells grown in the presence of test compounds would indicate a drug-induced cytotoxic effect.

Huh-7 cells = experiment: Cellular pharmacology in Huh7 cells (intracellular metabolites)
Method: Ice-cold 70% methanol was used as the extraction solvent. ddATP (10 nM) was used as the internal standard.

[6] = system: mitochondrial DNA (COXII gene) in HepG2 cells; experiment: Mitochondrial DNA level in HepG2 cells (real-time PCR)
Method: as §3, with “The” for “The comparative CT method uses arithmetic formulas in which the amount of target (COXII gene) is normalized to the amount of an endogenous reference (the B-actin or rRNA gene) and is relative to a calibrator (a control with no drug at day 7). The”

[7] = system: cellular rRNA (internal control, measure of cytotoxicity); experiment: Cytotoxicity in HCV replicon assay (ΔCt rRNA); format: cell-based; conditions: human
Method: as §1

[8] = system: Primary Human Hepatocytes; experiment: Cellular egress from Primary Human Hepatocytes; conditions: sofosbuvir pre-incubated 10 μM 12 h; time 48 hr
Method: FIGS. 6a and 6b are charts and tables showing cellular egress of Compound 9 (FIG. 6a) and sofosbuvir (FIG. 6b) from Primary Human Hepatocytes. The results are of freshly plated human hepatocytes ([…]) from a donor, where the cells were plated in 24-well plates. The compounds were pre-incubated at a concentration of 10 μM for 12 h, and cells were harvested at 0, 1, 2, 4, 10, 24 and 48 hours. The results for the monophosphate are shown in grey, for the diphosphate in orange, and for the triphosphate in blue.

[9] = Homo sapiens, HepG2, read-out: % inhibition MitDNA

Q: Which results are given for CC(C)OC(=O)[C@H](C)NP(=O)(OC[C@H]1O[C@@H](n2ccc(=O)[nH]c2=O)C(F)(Br)C1O)Oc1ccccc1 (stereo in doubt) [Compound 9]?
A: CC50 at 5 days [1]: > 10 µM; EC90 ([2]; Huh-7, read-out: EC90 (μM or letter value) or % inhib HCV): 0.1 to 1 µM; CC50 [3]: > 100 µM; CC50 [4]: > 100 µM; inhibition at 10 µM ([5]; read-out: % inhibition nDNA): 5.2%; inhibition at 50 µM ([5]; read-out: % inhibition nDNA): 49.8%; Lactic acid Production (% of control) (HepG2 cells; 10 μM): 89.5 ± 2.0 % of control; Lactic acid Production (% of control) (HepG2 cells; 50 μM): 111 ± 38.5 % of control; intracellular 7-DP (Huh-7 cells; human): 252 ± 14 pmol/10^6 cells; intracellular 7-MP (Huh-7 cells; human): 12.4 ± 1.5 pmol/10^6 cells; intracellular 7-TP (Huh-7 cells; human): 98.2 ± 2.2 pmol/10^6 cells; intracellular 9 (Huh-7 cells; human): 318.4 ± 26.6 pmol/10^6 cells; MitDNA Content (% of control) ([6]; HepG2 cells, 14-day assay, 10 μM, range in parentheses): 187 (169-206) % of control; MitDNA Content (% of control) ([6]; HepG2 cells, 14-day assay, 50 μM, range in parentheses): 64 (45-91) % of control; Summary (mitochondrial toxicity) ([6]; HepG2 cells, 14-day assay, mitochondrial/nuclear DNA and lactic acid): non-toxic up to 10 μM; also recorded: not toxic up to 10 μM; inhibition at 10 µM [6, 9]: < 1%; inhibition at 50 µM [6, 9]: 67.8%

Q: Which results are given for Nc1ccn([C@@H]2O[C@H](CO)[C@@H](O)[C@@]2(F)Br)c(=O)n1 [Compound 15, 2′-Deoxy-2′-bromo-2′-fluoro Cytidine]?
A: inhibition at 5 days, 10 µM [7]: 67.9%; inhibition at 10 µM ([2]; Huh-7, HCV 1b replicon, 10 μM): 99.9%

Q: Which results are given for CC(C)OC(=O)[C@H](C)N[P@](=O)(OC[C@H]1O[C@@H](n2ccc(=O)[nH]c2=O)[C@](C)(F)[C@@H]1O)Oc1ccccc1 [Sofosbuvir, reference compound]?
A: EC90 ([2]; Huh-7, HCV 1b replicon, numeric EC90, read-out: EC90 (μM or letter value) or % inhib HCV): 0.8 µM; EC50 ([2]; Huh-7, HCV 1b replicon, numeric, read-out: EC50 (μM or letter value)): 0.2 µM; inhibition at 1 µM ([5]; read-out: % inhibition nDNA): -98%; inhibition at 10 µM ([5]; read-out: % inhibition nDNA): -51%; inhibition at 50 µM ([5]; read-out: % inhibition nDNA): 93%; IC50 ([5]; read-out: IC50 nDNA, HepG2 cells, 14-day assay): 38 µM; intracellular SOF (Huh-7 cells; Huh-7 cells, 50 μM, 4 hr): 206.4 ± 3.2 pmol/10^6 cells; intracellular SOF-nuc (Huh-7 cells; Huh-7 cells, 50 μM, 4 hr): BLOQ; 2′-F, 2′Me UMP [8]: BLOQ; MI [8]: BLOQ; Summary (mitochondrial toxicity) [6]: Slightly toxic; inhibition at 1 µM [6, 9]: -12%; inhibition at 10 µM [6, 9]: -18%; inhibition at 50 µM [6, 9]: 87%; IC50 ([6]; Homo sapiens, HepG2, read-out: IC50 MitDNA, HepG2 cells, 14-day assay): 36 µM; MitDNA Content (% of control) ([6]; human, 14 days, 1 μM): 57 (35-93) % of control; MitDNA Content (% of control) ([6]; human, 14 days, 10 μM): 78 (69-89) % of control; MitDNA Content (% of control) ([6]; human, 14 days, 50 μM): 200 (136-278) % of control
